# Assay results: US12692235B2, “Fused ring compound and application thereof” (WUHAN LL SCIENCE AND TECHNOLOGY DEVELOPMENT CO., LTD., priority 2019, dated 2026)
# Tests used:
# [1] = biological target: T1, hP2X4 (human purinergic P2X receptor subtype 4) (Homo sapiens, UniProt Q99571); settings: P2X4 IC50 (nM), HEK293 cells stably expressing hP2X4; agonist BZ-ATP 2.5 μM; FLIPR calcium
# T1 sequence (Q99571 1-404 isoform Q99571-2): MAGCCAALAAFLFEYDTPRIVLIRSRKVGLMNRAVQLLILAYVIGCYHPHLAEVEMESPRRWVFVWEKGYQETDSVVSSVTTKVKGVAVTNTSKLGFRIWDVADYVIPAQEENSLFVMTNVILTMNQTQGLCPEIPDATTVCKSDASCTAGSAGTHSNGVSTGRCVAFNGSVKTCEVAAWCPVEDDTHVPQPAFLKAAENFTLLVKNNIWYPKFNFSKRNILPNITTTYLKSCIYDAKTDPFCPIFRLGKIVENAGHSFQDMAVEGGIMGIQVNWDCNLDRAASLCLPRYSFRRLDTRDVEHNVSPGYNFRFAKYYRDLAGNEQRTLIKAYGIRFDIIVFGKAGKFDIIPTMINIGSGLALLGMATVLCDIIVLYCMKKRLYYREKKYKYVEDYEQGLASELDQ
# [2] = tested on: Male Dunkin Hartley guinea pigs; assay: Simple citric acid cough model; format: in vivo; settings: guinea pig; for Average cough times: 17.5% citric acid
# Experimental: Male Dunkin Hartley guinea pigs (300-350 g) were placed in an animal atomization box, and then the door of the atomization box was closed while the ultrasonic atomizer (Guangdong Yuehua) was turned on. 17.5% citric acid gas was introduced into the atomization box at a maximum atomization rate (about 2 mL/min) for 20 s, and coughs of the animals within 10 min were continuously observed from the time of the start of atomization. During the 10-min observation, coughs of the animals needed to be counted manually, and the number of coughs were judged according to cough postures of the guinea pigs, such as abdominal twitching, mouth opening, and head inclining downward abruptly. The number of coughs during the first 5 min and that during 10 min were recorded, and the cough latency of the guinea pigs, namely the time from the initiation of citric acid induction to the appearance of the 1st cough, was also recorded.
# [3] = 60 mg/kg group, before administration
# [4] = citric acid, 20 mg/kg and 60 mg/kg, dose-dependent, vs vehicle group or before administration
smiles,measurement,setting,value
"COc1nccc2c(S(N)(=O)=O)cc(NC(=O)Cc3ccccc3Cl)cc12 [Compound 1, 2-(2-chlorophenyl)-N-(1-methoxy-5-sulfamoylisoquinolin-7-yl)acetamide]",IC50,[1],< 10 nM
same,Average cough times,"[2]; 20 mg/kg group, before administration",19.00
same,Average cough times,"[2]; 20 mg/kg, after administration",11.22
same,Average cough times,[2]; [3],19.40
same,Average cough times,"[2]; 60 mg/kg, after administration",10.50
same,Average cough times,"[2]; 100 mg/kg group, before administration",19.90
same,Average cough times,"[2]; 100 mg/kg, after administration",8.60
same,Cough inhibition rate Vs basic value (%),"[2]; citric acid, 20 mg/kg",40.94%
same,Cough inhibition rate Vs vehicle (%),"[2]; citric acid, 20 mg/kg",38.41%
same,cough latency,[2]; [4],prolong the cough latency
same,number of coughs,[2]; [4],reduce the number of coughs
same,Cough inhibition rate Vs basic value (%),"[2]; citric acid, 60 mg/kg",45.88%
same,Cough inhibition rate Vs vehicle (%),"[2]; citric acid, 60 mg/kg",42.38%
same,drug effect compared with dextromethorphan at the same dosage,"[2]; citric acid, 60 mg/kg",no significant difference in the drug effect compared with the positive compound dextromethorphan
same,Cough inhibition rate Vs basic value (%),"[2]; citric acid, 100 mg/kg",56.78%
same,Cough inhibition rate Vs vehicle (%),"[2]; citric acid, 100 mg/kg",52.80%
"NS(=O)(=O)c1cc(NC(=O)Cc2ccccc2Cl)cc2c1CCN(Cc1ccccc1)C2 [Compound 110, N-(2-benzyl-5-sulfamoyl-1,2,3,4-tetrahydroisoquinolin-7-yl)-2-(2-chlorophenyl)acetamide]",IC50,[1],200 to 5000 nM
NS(=O)(=O)c1cc(NC(=O)Cc2ccccc2Cl)cc2c1CCN(CC1CC1)C2 [Compound 111],IC50,[1],200 to 5000 nM
"CN1CCc2c(cc(NC(=O)Cc3ccccc3Cl)cc2S(N)(=O)=O)C1 [Compound 112, 2-(2-chlorophenyl)-N-(2-methyl-5-sulfamoyl-1,2,3,4-tetrahydroisoquinolin-7-yl)acetamide]",IC50,[1],10 to 50 nM
"CC(C)N1CCc2c(cc(NC(=O)Cc3ccccc3Cl)cc2S(N)(=O)=O)C1 [Compound 113, 2-(2-chlorophenyl)-N-(2-isopropyl-5-sulfamoyl-1,2,3,4-tetrahydroisoquinolin-7-yl)acetamide]",IC50,[1],50 to 200 nM
"NS(=O)(=O)c1cc(NC(=O)Cc2ccccc2Cl)cc2c1CCN(C(=O)C(F)(F)F)C2 [Compound 114, 2-(2-chlorophenyl)-N-(5-sulfamoyl-2-(2,2,2-trifluoroacetyl)-1,2,3,4-tetrahydroisoquinolin-7-yl) acetamide]",IC50,[1],10 to 50 nM
"NS(=O)(=O)c1cc(NC(=O)Cc2ccccc2Cl)cc2c1CCN(C(Cl)Cl)C2 [Compound 115, 2-(2-chlorophenyl)-N-(2-(dichloromethyl)-sulfamoyl-1,2,3,4-tetrahydroisoquinolin-7-yl)acetamide]",IC50,[1],200 to 5000 nM
"NS(=O)(=O)c1cc(NC(=O)Cc2ccccc2Cl)cc2c1CCN(c1ccc(Cl)cn1)C2 [Compound 116, 2-(2-chlorophenyl)-N-(2-(5-chloropyridin-2-yl)-5-sulfamoyl-1,2,3,4-tetrahydroisoquinolin-7-yl)acetamide]",IC50,[1],50 to 200 nM
"NS(=O)(=O)c1cc(NC(=O)Cc2ccccc2Cl)cc2c1CCN(c1ccc(C(F)(F)F)cn1)C2 [Compound 117, 2-(2-chlorophenyl)-N-(5-sulfamoyl-2-(5-(trifluoromethyl)pyridin-2-yl)-1,2,3,4-tetrahydroisoquinolin-7-yl)acetamide]",IC50,[1],10 to 50 nM
"NS(=O)(=O)c1cc(NC(=O)Cc2ccccc2Cl)cc2c1CCN(c1cc(Cl)c(F)cn1)C2 [Compound 118, N-(2-(4-chloro-5-fluoropyridin-2-yl)-5-sulfamoyl-1,2,3,4-tetrahydroisoquinolin-7-yl)-2-(2-chlorophenyl)acetamide]",IC50,[1],50 to 200 nM
"C=CC(F)(F)N1CCc2c(cc(NC(=O)Cc3ccccc3Cl)cc2S(N)(=O)=O)C1 [Compound 119, 2-(2-chlorophenyl)-N-(2-(1,1-difluoroallyl)-5-sulfamoyl-1,2,3,4-tetrahydroisoquinolin-7-yl)acetamide]",IC50,[1],200 to 5000 nM
"NS(=O)(=O)c1cc(NC(=O)Cc2ccccc2Cl)cc2c1CCN(c1ccc(F)cc1)C2 [Compound 120, 2-(2-chlorophenyl)-N-(2-(4-fluorophenyl)-5-sulfamoyl-1,2,3,4-tetrahydroisoquinolin-7-yl)acetamide]",IC50,[1],50 to 200 nM
"Cc1ccc(N2CCc3c(cc(NC(=O)Cc4ccccc4Cl)cc3S(N)(=O)=O)C2)nc1 [Compound 121, 2-(2-chlorophenyl)-N-(2-(5-methylpyridin-2-yl)-5-sulfamoyl-1,2,3,4-tetrahydroisoquinoline-7-yl)acetamide]",IC50,[1],50 to 200 nM
NS(=O)(=O)c1cc(NC(=O)Cc2ccc(F)cc2Cl)cc2c1CCN(c1ccc(F)cn1)C2 [Compound 122],IC50,[1],200 to 5000 nM
"NS(=O)(=O)c1cc(NC(=O)Cc2ccccc2Cl)cc2c1CCN(C1COC1)C2 [Compound 123, 2-(2-chlorophenyl)-N-(2-(oxetan-3-yl)-5-sulfamoyl-1,2,3,4-tetrahydroisoquinolin-7-yl)acetamide]",IC50,[1],200 to 5000 nM
"COc1ccc2c(c1)[C@]13CCCC[C@@H]1[C@H](C2)N(C)CC3 [Dextromethorphan, dextromethorphan, reference compound]",Average cough times,[2]; [3],19.70
same,Average cough times,"[2]; 60 mg/kg, after administration",11.20
same,Cough inhibition rate Vs basic value (%),"[2]; citric acid, 60 mg/kg",43.15%
same,Cough inhibition rate Vs vehicle (%),"[2]; citric acid, 60 mg/kg",38.54%
"COc1ccc(Nc2ccc3c(S(N)(=O)=O)cc(NC(=O)Cc4ccccc4Cl)cc3n2)cc1 [Trifluoroacetate of compound 71, 2-(2-chlorophenyl)-N-(2-((4-methoxyphenyl)amino)-5-sulfamoylquinolin-7-yl)acetamide]",IC50,[1],200 to 5000 nM
